Laboratory results from the supplement of paper PMC11699113.

System: ED cells (E. derm NBM-6, ATCC CCL-57)
Assay: cell viability (ATP, CellTiter-Glo) relative to untreated control (fraction of control); higher = less cytotoxic

Nc1nc(NC2CC2)c2ncn([C@H]3C=C[C@@H](CO)C3)c2n1 [abacavir]
cell viability
Details	0.5 µM	2 µM	5 µM	10 µM	25 µM	50 µM	80 µM	100 µM	200 µM	300 µM
incubation time: 1h	1	0.999	1	1	1	0.999	0.994	0.99	0.983	0.982
incubation time: 24h	1.01	1.02	1.01	1.01	0.99	0.944	0.924	0.91	0.846	0.788
incubation time: 72h	1.02	1.03	0.999	0.978	0.925	0.846	0.785	0.745	0.604	0.506
incubation time: 144h	1.04	1.02	0.992	0.949	0.884	0.816	0.754	0.735	0.596	0.458

COC(=O)N[C@H](C(=O)N[C@@H](Cc1ccccc1)[C@@H](O)CN(Cc1ccc(-c2ccccn2)cc1)NC(=O)[C@@H](NC(=O)OC)C(C)(C)C)C(C)(C)C [atazanavir]
cell viability
Details	0.125 µM	0.25 µM	0.5 µM	2 µM	10 µM	20 µM	50 µM	80 µM	100 µM	124 µM
incubation time: 1h	1.05	1.05	1.05	1.06	1.06	1.04	1.03	1.01	1.02	1.02
incubation time: 24h	1.07	1.08	1.07	1.07	1.06	1.06	1.03	0.979	0.941	0.798
incubation time: 72h	1.09	1.12	1.1	1.1	1.13	1.12	1.09	0.802	0.416	0.0698
incubation time: 144h	1.02	1.05	1.03	1.03	1.07	1.07	1.04	0.554	0.0524	0.00492

O=C(NCc1c(F)cc(F)cc1F)c1cn2c(c(O)c1=O)C(=O)N1[C@H]3CC[C@H](C3)O[C@@H]1C2 [bictegravir]
cell viability
Details	0.06 µM	0.125 µM	0.325 µM	2 µM	5 µM	10 µM	20 µM	30 µM	42 µM	concentration (µM): C04 (printed 10, out of sequence, likely typo)
incubation time: 1h	1	0.997	0.994	0.995	0.987	0.99	0.993	0.994	0.98	1
incubation time: 24h	1.01	0.998	1.01	1.01	1.02	1.01	1.03	1.01	1	1.01
incubation time: 72h	1.07	1.09	1.1	1.1	1.11	1.11	1.08	1.05	0.997	1.09
incubation time: 144h	1.07	1.06	1.07	1.06	1.06	1.05	1.01	0.972	0.952	1.07

O=C1Nc2ccc(Cl)cc2[C@@](C#CC2CC2)(C(F)(F)F)O1 [efavirenz]
cell viability
Details	0.5 µM	2 µM	5 µM	10 µM	20 µM	40 µM	50 µM	75 µM	100 µM	150 µM
incubation time: 1h	1.05	1.04	1.02	0.985	0.902	0.523	0.35	0.164	0.0891	0.0482
incubation time: 24h	0.985	0.989	1.01	0.999	0.979	0.618	0.194	0.00645	0.0077	0.00431
incubation time: 72h	1.04	1.04	1.04	1.03	1.01	0.907	0.659	0.0635	0.0176	0.00453
incubation time: 144h	1.02	1.02	1.02	1	0.969	0.862	0.574	0.128	0.113	0.00579

Nc1nc(=O)n([C@@H]2CS[C@H](CO)O2)cc1F [emtricitabine]
cell viability
Details	0.5 µM	2 µM	5 µM	10 µM	25 µM	50 µM	80 µM	100 µM	200 µM	300 µM
incubation time: 1h	0.999	0.996	1.01	1.01	0.998	1	1.01	1.01	0.998	1.01
incubation time: 24h	0.998	1.02	1.02	1.04	1.04	1.03	1.03	1.03	1.01	1
incubation time: 72h	1.03	1.05	1.05	1.05	1.05	1.04	1.04	1.03	0.999	0.999
incubation time: 144h	1.03	1.05	1.06	1.06	1.06	1.05	1.04	1.05	1.05	1.02

CC[C@H](C)[C@H](NC(=O)[C@H](CC(C)C)NC(=O)[C@H](CO)NC(=O)[C@H](Cc1cnc[nH]1)NC(=O)[C@@H](NC(=O)[C@H](CC(C)C)NC(=O)[C@H](CO)NC(=O)[C@@H](NC(=O)[C@H](Cc1ccc(O)cc1)NC(C)=O)[C@@H](C)O)[C@@H](C)CC)C(=O)N[C@@H](CCC(=O)O)C(=O)N[C@@H](CCC(=O)O)C(=O)N[C@@H](CO)C(=O)N[C@@H](CCC(N)=O)C(=O)N[C@@H](CC(N)=O)C(=O)N[C@@H](CCC(N)=O)C(=O)N[C@@H](CCC(N)=O)C(=O)N[C@@H](CCC(=O)O)C(=O)N[C@@H](CCCCN)C(=O)N[C@@H](CC(N)=O)C(=O)N[C@@H](CCC(=O)O)C(=O)N[C@@H](CCC(N)=O)C(=O)N[C@@H](CCC(=O)O)C(=O)N[C@@H](CC(C)C)C(=O)N[C@@H](CC(C)C)C(=O)N[C@@H](CCC(=O)O)C(=O)N[C@@H](CC(C)C)C(=O)N[C@@H](CC(=O)O)C(=O)N[C@@H](CCCCN)C(=O)N[C@@H](Cc1c[nH]c2ccccc12)C(=O)N[C@@H](C)C(=O)N[C@@H](CO)C(=O)N[C@@H](CC(C)C)C(=O)N[C@@H](Cc1c[nH]c2ccccc12)C(=O)N[C@@H](CC(N)=O)C(=O)N[C@@H](Cc1c[nH]c2ccccc12)C(=O)N[C@@H](Cc1ccccc1)C(N)=O [enfuvirtide]
cell viability
Details	0.03 µM	0.06 µM	0.125 µM	0.25 µM	0.5 µM	1 µM	2 µM	5 µM	8 µM	11 µM
incubation time: 1h	1.05	1.06	1.06	1.07	1.05	1.05	1.05	1.05	1.06	1.06
incubation time: 24h	1.06	1.07	1.06	1.07	1.06	1.06	1.06	1.07	1.05	1.04
incubation time: 72h	1.05	1.06	1.06	1.08	1.06	1.06	1.07	1.06	1.05	1.06
incubation time: 144h	1.02	1.03	1.03	1.04	1.03	1.03	1.04	1.04	1.06	1.04
